Measured values: patent US20040023945A1, “CYCLIC AMP-SPECIFIC PHOSPHODIESTERASE INHIBITORS” (ICOS Corporation, priority 1999, published 2004)
Like-named read-outs stand apart in the source and are kept apart here. Blank lines part the entries; values can stand above or below the molecule they belong to.

Legend:
recombinant human PDE4 [1] = settings: background, prior art; read-out: reported IC50 with respect to recombinant human PDE4; cited from earlier work
[2] = test system: human peripheral blood lymphocytes; experiment: Lipopolysaccharide-stimulated TNFα release from human peripheral blood lymphocytes; format: cell-based; settings: Homo sapiens, Lymphocyte
Method: The compounds of structural formula (II) also were tested for an ability to reduce TNFα secretion in human peripheral blood lymphocytes. The ability to reduce TNFα secretion is related to the EC50 values (i.e., the effective concentration of the compound capable of inhibiting 50% of the total TNFα).
To assess the ability of a compound to reduce TNFα secretion in human peripheral blood lymphocytes (PBL), the following tests were performed.
Heparinized blood (approximately 30 mL) drawn from human volunteers was mixed 1:1 with Dulbecco's modified phosphate-buffered saline. This mixture was mixed 1:1 with HISTOPAQUE® and centrifuged at 1,500 rpm at room temperature without braking in the swinging bucket of a Beckman model TJ6 centrifuge. Erythrocytes were centrifuged to the bottom of the tubes, and serum remained at the surface of the tubes. A layer containing lymphocytes sedimented between the serum and HISTOPAQUE® layers, and was removed by aspiration to a fresh tube. The cells were quantified and adjusted to 3×10^6 cells/mL and a 100 μL aliquot is placed into the wells of a 96 well plate. Test compounds and RPMI media (Gibco/BRL Life Sciences) are added to each of the wells 15 minutes prior to addition of bacterial LPS ([…]). The mixture was allowed to incubate for 20 hours at 37° C. in a humidified chamber. The cells then were separated by centrifuging at 800 rpm for 5 minutes at room temperature. An aliquot of 180 μL of supernatant was transferred to a new plate for determination of TNFα concentration. TNFα protein in the cell supernatant fluids was measured using a commercially available enzyme-linked immunosorbent assay (ELISA) (CYTOSCREEN® Immunoassay Kit from Biosource International).
The cell-based assay provided the following results for various pyrrolidine compounds of the present invention. The EC50 values (i.e., effective concentration of the compound capable of inhibiting 50% of the total TNFα) illustrate the ability of the present compounds to inhibit LPS-stimulated TNFα release from human PBL.

human recombinant PDE4B = biological target: T1, human recombinant PDE4B (Homo sapiens, UniProt Q07343); experiment: Inhibition of human recombinant PDE4B; format: biochemical
T1 construct: made in house; host or cells: Saccharomyces cerevisiae strain YI23 harboring HDUN2.32
T1 sequence (Q07343 whole entry): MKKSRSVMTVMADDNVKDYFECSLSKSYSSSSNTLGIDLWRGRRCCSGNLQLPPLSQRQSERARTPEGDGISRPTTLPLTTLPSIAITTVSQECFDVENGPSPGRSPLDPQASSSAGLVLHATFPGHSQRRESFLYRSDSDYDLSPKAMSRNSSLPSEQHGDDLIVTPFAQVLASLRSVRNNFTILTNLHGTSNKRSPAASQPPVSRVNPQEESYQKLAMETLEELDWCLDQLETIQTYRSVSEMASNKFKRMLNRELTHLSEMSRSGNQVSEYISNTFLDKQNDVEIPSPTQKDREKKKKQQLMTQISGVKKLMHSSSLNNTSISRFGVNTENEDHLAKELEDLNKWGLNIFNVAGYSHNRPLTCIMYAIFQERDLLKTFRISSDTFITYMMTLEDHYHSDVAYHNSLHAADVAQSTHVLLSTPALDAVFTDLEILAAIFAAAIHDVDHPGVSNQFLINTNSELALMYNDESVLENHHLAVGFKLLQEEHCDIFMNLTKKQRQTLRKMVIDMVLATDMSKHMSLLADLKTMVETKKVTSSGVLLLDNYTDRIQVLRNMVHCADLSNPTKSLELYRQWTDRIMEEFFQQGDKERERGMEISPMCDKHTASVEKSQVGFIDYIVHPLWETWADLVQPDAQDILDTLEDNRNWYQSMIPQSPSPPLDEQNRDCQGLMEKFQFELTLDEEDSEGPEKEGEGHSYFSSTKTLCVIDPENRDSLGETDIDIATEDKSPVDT

[3] = test system: serum TNFα levels in LPS-injected mice; experiment: Inhibition of serum TNFα levels in LPS-injected mice (Mouse/TNFα ED50); format: in vivo; settings: Mus musculus
Method: In order to assess the ability of a compound to reduce serum TNFα levels in mammals, the following protocol was employed. […] Accordingly, in vivo efficacy of a PDE4 reducing compound was shown by dosing with compound and measuring reduction of serum TNFα levels in LPS-injected mice. Female C3H mice, 20-25 gm body weight, were fasted overnight and dosed intraperitoneally with test compound in appropriate vehicle 60 minutes before LPS injection. Five μg of LPS was then injected intraperitoneally into the mice. Ninety minutes after LPS injection, mice were bled from the heart. Blood was allowed to clot overnight at 4° C. Samples were centrifuged for 10 minutes in a microcentrifuge and the serum removed and stored at −20° C. until analysis. Serum levels of TNFα were subsequently measured using a commercially available ELISA kit (Genzyme) following the protocol enclosed in the kit. The percent of inhibition of serum TNFα levels caused by the compound was determined relative to serum TNFα levels in control mice receiving vehicle alone. […]

[4] = Mouse locomotor activity assay (decrease in spontaneous mobility); settings: female, Balb/c, in vivo, intraperitoneal, read-out: Mouse Inhibition of Spontaneous Mobility ED50
Method: (§1) The purpose of this study was to determine the efficacy of PDE4 inhibitors in vivo in an LPS mouse model together with a determination with respect to central nervous system (CNS) side-effects manifested by a decrease in spontaneous mobility.
(§2) The test animals were female Balb/c mice, having an average weight of about 20 g. The PDE4 inhibitors, formulated in 30% Cremophor® EL, were administered via intraperitoneal (i.p.) injections at doses of 0.1, 1.0, 10.0, and 100 mg/kg. Individual dose volumes (about 150 μL) were adjusted based on the body weights measured. One hour later, 5 mg/kg LPS in a final volume of 200 μL was injected via the tail vein to each animal. Ninety minutes following the LPS treatment, the animals were bled and serum samples were collected before being stored at −70° C. until assayed.
(§3) Movement of the X-Y plane, or rearing up on the hind legs, was quantified by counting the number of “light-beam” crosses per unit of time. A decrease in the number of activity events is directly proportional to the mobility or immobilization of the animal. The quantitative scoring correlated well with the subjective measurements described above.

Balb/c mice = experiment: as above; settings: in vivo, ip
Method: as §1, §2, §3

PDE1C = biological target: T2, PDE1C (Homo sapiens, UniProt Q14123); experiment: Inhibition of PDE1C; format: biochemical
T2 construct: contained the complete open reading frame of PDE1C3; made in house; host or cells: baculovirus-infected Sf9 cells

recombinant human PDE4 [5] = experiment: Inhibition of recombinant human PDE4 (cAMP hydrolysis); settings: read-out: PDE4 IC50
mouse = experiment: Subjective assessment of mouse immobility (CNS side effects); format: in vivo; settings: subjective assessment of mouse immobility, i.p. 1, 10 and 100 mg/kg, 60 minutes
PDE7 = biological target: T3, PDE7 (Homo sapiens, UniProt Q13946); experiment: Inhibition of PDE7; format: biochemical
T3 construct: made in house; host or cells: Saccharomyces cerevisiae BJ2-54
T3 sequence (Q13946 whole entry): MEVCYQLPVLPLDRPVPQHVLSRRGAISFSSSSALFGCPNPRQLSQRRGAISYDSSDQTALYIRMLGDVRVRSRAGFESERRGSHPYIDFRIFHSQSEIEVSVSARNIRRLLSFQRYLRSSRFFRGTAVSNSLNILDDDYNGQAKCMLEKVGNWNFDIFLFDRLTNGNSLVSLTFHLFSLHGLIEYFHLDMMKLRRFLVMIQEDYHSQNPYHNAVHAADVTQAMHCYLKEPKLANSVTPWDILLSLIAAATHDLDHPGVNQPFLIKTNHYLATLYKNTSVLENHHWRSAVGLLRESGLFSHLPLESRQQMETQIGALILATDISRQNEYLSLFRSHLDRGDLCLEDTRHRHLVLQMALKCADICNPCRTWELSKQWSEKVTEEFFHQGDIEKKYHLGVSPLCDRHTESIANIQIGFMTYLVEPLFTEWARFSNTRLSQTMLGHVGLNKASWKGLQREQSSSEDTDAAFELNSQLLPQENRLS

PDE1A = biological target: T4, PDE1A (Homo sapiens, UniProt P54750); experiment: Inhibition of PDE1A; format: biochemical
T4 construct: contained the complete open reading frame of PDE1A3; made in house; host or cells: baculovirus-infected Sf9 cells

PDE2 = biological target: T5, PDE2 (Homo sapiens, UniProt O00408); experiment: Inhibition of PDE2; format: biochemical
T5 construct: made in house; host or cells: Saccharomyces cerevisiae strain YI34
T5 sequence (O00408 whole entry): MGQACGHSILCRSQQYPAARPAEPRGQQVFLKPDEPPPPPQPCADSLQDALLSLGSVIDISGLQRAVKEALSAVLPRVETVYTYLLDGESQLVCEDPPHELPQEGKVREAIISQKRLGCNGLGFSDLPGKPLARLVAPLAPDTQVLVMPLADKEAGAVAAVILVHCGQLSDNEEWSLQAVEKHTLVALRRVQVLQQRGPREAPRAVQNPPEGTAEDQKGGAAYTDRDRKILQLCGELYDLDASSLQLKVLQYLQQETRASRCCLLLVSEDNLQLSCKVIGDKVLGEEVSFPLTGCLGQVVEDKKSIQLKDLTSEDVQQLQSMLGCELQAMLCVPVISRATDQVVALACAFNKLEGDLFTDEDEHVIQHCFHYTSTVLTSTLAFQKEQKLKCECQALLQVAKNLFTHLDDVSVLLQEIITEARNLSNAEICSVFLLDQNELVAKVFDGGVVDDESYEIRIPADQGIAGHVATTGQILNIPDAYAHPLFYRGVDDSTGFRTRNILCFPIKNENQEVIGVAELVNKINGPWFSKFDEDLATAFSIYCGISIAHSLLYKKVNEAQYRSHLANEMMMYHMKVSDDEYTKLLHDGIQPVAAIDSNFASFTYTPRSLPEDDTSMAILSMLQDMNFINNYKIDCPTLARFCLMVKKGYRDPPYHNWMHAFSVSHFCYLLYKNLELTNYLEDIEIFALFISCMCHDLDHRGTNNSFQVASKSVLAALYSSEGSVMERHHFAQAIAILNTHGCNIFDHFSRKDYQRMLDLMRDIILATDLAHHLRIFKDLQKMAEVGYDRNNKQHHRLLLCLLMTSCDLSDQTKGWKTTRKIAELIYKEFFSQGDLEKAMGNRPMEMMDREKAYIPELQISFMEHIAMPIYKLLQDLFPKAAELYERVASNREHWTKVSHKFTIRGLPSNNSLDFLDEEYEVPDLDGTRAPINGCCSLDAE

PDE3A = biological target: T6, PDE3A (Homo sapiens, UniProt Q14432); experiment: Inhibition of PDE3A; format: biochemical
T6 construct: contained the complete open reading frame of PDE3A; made in house; host or cells: baculovirus-infected Sf9 cells
T6 sequence (Q14432 whole entry): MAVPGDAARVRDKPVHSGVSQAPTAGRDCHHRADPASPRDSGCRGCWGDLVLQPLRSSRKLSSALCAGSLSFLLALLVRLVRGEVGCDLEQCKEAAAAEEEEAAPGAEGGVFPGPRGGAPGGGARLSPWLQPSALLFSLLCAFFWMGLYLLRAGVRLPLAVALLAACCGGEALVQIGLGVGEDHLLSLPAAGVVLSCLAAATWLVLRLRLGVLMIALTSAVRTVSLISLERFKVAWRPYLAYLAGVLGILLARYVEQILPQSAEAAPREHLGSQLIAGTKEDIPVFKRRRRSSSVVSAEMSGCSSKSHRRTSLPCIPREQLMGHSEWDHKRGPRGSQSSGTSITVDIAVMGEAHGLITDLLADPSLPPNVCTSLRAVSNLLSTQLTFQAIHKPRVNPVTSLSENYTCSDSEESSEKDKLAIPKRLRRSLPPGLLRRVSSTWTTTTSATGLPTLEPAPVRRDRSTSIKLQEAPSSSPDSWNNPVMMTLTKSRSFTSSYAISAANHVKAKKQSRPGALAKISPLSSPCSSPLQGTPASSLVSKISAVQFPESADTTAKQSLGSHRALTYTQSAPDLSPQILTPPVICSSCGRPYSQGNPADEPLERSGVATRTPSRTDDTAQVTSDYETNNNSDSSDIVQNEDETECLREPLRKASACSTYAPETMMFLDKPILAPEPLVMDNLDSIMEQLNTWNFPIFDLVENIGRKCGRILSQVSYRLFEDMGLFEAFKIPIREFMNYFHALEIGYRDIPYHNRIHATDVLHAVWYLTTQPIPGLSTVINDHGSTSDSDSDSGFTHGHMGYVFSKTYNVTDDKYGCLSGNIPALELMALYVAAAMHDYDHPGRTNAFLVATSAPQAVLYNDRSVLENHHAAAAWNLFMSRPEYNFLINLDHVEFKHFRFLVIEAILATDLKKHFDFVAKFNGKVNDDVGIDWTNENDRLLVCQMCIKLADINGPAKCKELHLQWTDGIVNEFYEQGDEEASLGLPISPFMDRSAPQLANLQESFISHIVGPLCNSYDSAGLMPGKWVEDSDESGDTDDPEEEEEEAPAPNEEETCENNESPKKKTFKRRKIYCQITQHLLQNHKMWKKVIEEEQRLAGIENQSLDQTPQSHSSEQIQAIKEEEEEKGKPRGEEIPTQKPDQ

PDE1B = biological target: T7, PDE1B (Homo sapiens, UniProt Q01064); experiment: Inhibition of PDE1B; format: biochemical
T7 construct: made in house; host or cells: Saccharomyces cerevisiae BJ2-54

ferret = experiment: Emetic modeling in the ferret following oral and intravenous dosing; format: in vivo, Mustela putorius furo
Method: This study was conducted to investigate the emetogenic properties of PDE4 inhibitors in vivo. The ferret previously has been established as a valuable tool for assessing emesis following exposure to test compounds. […] Therefore, lack of and/or decrease in emetic potential of test compounds in ferrets predicts a favorable nonemetic effect in humans. Emesis is a complex physiological response to noxious agents that can be intiated peripherally or centrally.
The test animals were adult, castrated, and descented male ferrets (species=Mustela putorius furo, Strain=Sable) ranging in weight from about 1 to 1.5 kg. The tests were performed in quadruplicate on animals that were naive to PDE4 inhibitors. The PDE4 inhibitors were formulated in 10% Polyoxyl-35 castor oil (CREMOPHOR® EL, available from BASF Corporation, Parsippany, N.J.) in phosphate buffered saline (PBS), and were administered via i.v. injections into an indwelling catheter surgically positioned in the right external jugular vein at a rate of 0.66 mL per kg body weight. PDE4 inhibitors for oral consumption were formulated in 30% CREMOPHOR® EL in PBS, and administered by intubating animals with a 16-gauge feeding needle into the stomach. The animals received the PDE4 inhibitors in a volume of 1.33 mL per kg body weight.
All animals were fasted for 8 to 12 hours prior to administration of PDE4 inhibitors. Following administration of a PDE4 inhibitor, emetic and behavioral responses were quantified for three hours post dosing. The total number of emetic responses and vomiting episodes were quantified during the observation interval. In addition, latency time to first emetic episode, duration of emesis episodes, and gross behavioral changes including ataxia, profuse and viscous salivation, mouth clawing, hyperventilation, backward walking, flattened body posture, hyperactivity, lip licking, and general appearance were recorded.
For comparative purposes, the emetogenic effect of Samples 66 and 69 were tested intravenously at 1.0, 2.5, 5.0, and 10 mg/kg and orally at 2.5, 10, 17, and 25 mg/kg.

PDE5 = biological target: T8, PDE5 (Homo sapiens, UniProt O76074); experiment: Inhibition of PDE5; format: biochemical
T8 construct: made in house; host or cells: Saccharomyces cerevisiae BJ2-54

[6] = A. Robichaud et al., Neuropharmacology 1999; cited from earlier work
[7] = read-out: Mouse LPS Challenge ED50

Structure (SMILES): COc1ccc(C2CNC(=O)C2)cc1OC1CCCC1 (centres unmarked) [Rolipram, rolipram]
- IC50 (recombinant human PDE4 [1]): ~200 nM

Structure (SMILES): COc1ccc([C@@H]2CN(C(=O)CNC(=O)OCc3ccccc3)C[C@@]2(C)[C@@H](C)O)cc1OC1Cc2ccccc2C1 [Example 29, N-(2-[3-((1R)-1-Hydroxyethyl)(3S,4S)-4-(3-indan-2-yloxy-4-methoxyphenyl)-3-methylpyrrolidinyl]-2-oxoethyl}(phenylmethoxy)carboxamide]
- ED50, effective dose that decreases spontaneous mobility 50% of control (Balb/c mice): 9.8 mg/kg

Structure (SMILES): COC(=O)N1C[C@@H](c2ccc(OC)c(OC3CCCC3)c2)[C@](C)([C@@H](C)O)C1 [(C)]
- IC50 (PDE1C): 12000 nM
- IC50 (recombinant human PDE4 [5]; human recombinant PDE4): 14 nM
- IC50 (recombinant human PDE4 [5]; stereoisomer comparison table): 14 nM
- CNS Side Effects (mouse): No effect
- EC50 ([2]; LPS-stimulated TNFα release from human PBL, read-out: PBL/TNFα EC50): 71.6 nM
- IC50 (PDE7): 36000 nM
- IC50 (PDE1A): 80000 nM
- IC50 (PDE2): 450000 nM
- IC50 (PDE3A): 40000 nM
- IC50 (human recombinant PDE4B; read-out: IC50 vs. human recombinant PDE4B): 15 nM
- IC50 (PDE1B): 100000 nM
- Number of Emetic Events: Retches (ferret; intravenous 1.0 mg/kg): 0
- Number of Emetic Events: Total (ferret; intravenous 1.0 mg/kg): 0
- Number of Emetic Events: Vomits (ferret; intravenous 1.0 mg/kg): 0
- Responders (ferret; intravenous 1.0 mg/kg): 0/4
- Number of Emetic Events: Retches (ferret; intravenous 2.5 mg/kg): 0
- Number of Emetic Events: Total (ferret; intravenous 2.5 mg/kg): 0
- Number of Emetic Events: Vomits (ferret; intravenous 2.5 mg/kg): 0
- Responders (ferret; intravenous 2.5 mg/kg): 0/4
- Number of Emetic Events: Retches (ferret; intravenous 5.0 mg/kg): 10
- Number of Emetic Events: Total (ferret; intravenous 5.0 mg/kg): 10
- Number of Emetic Events: Vomits (ferret; intravenous 5.0 mg/kg): 0
- Responders (ferret; intravenous 5.0 mg/kg): 2/4
- Number of Emetic Events: Retches (ferret; intravenous 10.0 mg/kg): 27
- Number of Emetic Events: Total (ferret; intravenous 10.0 mg/kg): 31
- Number of Emetic Events: Vomits (ferret; intravenous 10.0 mg/kg): 4
- Responders (ferret; intravenous 10.0 mg/kg): 4/4
- distress after intravenous dosing (ferret; intravenous 10 mg/kg body weight): none displayed the distress
- Number of Emetic Events: Retches (ferret; oral 2.5 mg/kg): 0
- Number of Emetic Events: Total (ferret; oral 2.5 mg/kg): 0
- Number of Emetic Events: Vomits (ferret; oral 2.5 mg/kg): 0
- Responders (ferret; oral 2.5 mg/kg): 0/4
- Number of Emetic Events: Retches (ferret; oral 10.0 mg/kg): 14
- Number of Emetic Events: Total (ferret; oral 10.0 mg/kg): 22
- Number of Emetic Events: Vomits (ferret; oral 10.0 mg/kg): 8
- Responders (ferret; oral 10.0 mg/kg): 2/4
- Number of Emetic Events: Retches (ferret; oral 17.0 mg/kg): 17
- Number of Emetic Events: Total (ferret; oral 17.0 mg/kg): 18
- Number of Emetic Events: Vomits (ferret; oral 17.0 mg/kg): 1
- Responders (ferret; oral 17.0 mg/kg): 2/3
- Number of Emetic Events: Retches (ferret; oral 25.0 mg/kg): 61
- Number of Emetic Events: Total (ferret; oral 25.0 mg/kg): 73
- Number of Emetic Events: Vomits (ferret; oral 25.0 mg/kg): 12
- Responders (ferret; oral 25.0 mg/kg): 4/4
- IC50 (PDE5): 270000 nM
- ED50 ([3]; stereoisomer comparison table, read-out: Mouse/TNFα ED50): 5 mg/kg

Structure (SMILES): COc1ccc([C@@H]2CNC(=O)C2)cc1OC1CCCC1 [R-rolipram]
- emetic potency relative to the (+)-enantiomer (S-rolipram) [6]: about ten-fold

Structure (SMILES): COC(=O)N1CC(c2ccc(OC)c(OC3CCCC3)c2)C(C)(C(C)=O)C1 (centres unmarked) [formula (I)]
- IC50 (recombinant human PDE4 [1]): ~2 nM

Second part, led by results:

- EC50 ([2]; read-out: Cell based EC50): 30 nM
- IC50 (human recombinant PDE4B; read-out: PDE4B IC50): 7 nM
- ED50 [4]: 100 mg/kg
Structure (SMILES): COc1ccc([C@@H]2CN(C(=O)C(O)c3ccccc3)C[C@@]2(C)[C@@H](C)O)cc1OCC1CC1 (stereo partly drawn) [Example 195, 1-{3-((1R)-1-Hydroxyethyl)(3S,4S)-4-[3-(cyclopropyl-methoxy)-4-methoxyphenyl]-3-methylpyrrolidinyl}-2-hydroxy-2-phenylethan-1-one]
- ED50 [3, 7]: 9 mg/kg

- EC50 ([2]; read-out: Cell based EC50): 10 nM
- IC50 (human recombinant PDE4B; read-out: PDE4B IC50): 3 nM
- ED50 [4]: < 100 mg/kg
Structure (SMILES): COc1ccc([C@@H]2CN(C(=O)[C@@H](O)CO)C[C@@]2(C)[C@@H](C)O)cc1OCC#Cc1ccccc1 [Example 264, (S)-2,3-Dihydroxy-1-{(3S,4S)-3-((R)-1-hydroxyethyl)-4-[4-methoxy-3-(3-phenylprop-2-ynyloxy)phenyl]-3-methylpyrrolidin-1-yl}propan-1-one]
- ED50 [3, 7]: 1 mg/kg

- EC50 ([2]; read-out: Cell based EC50): 30 nM
- IC50 (human recombinant PDE4B; read-out: PDE4B IC50): 11 nM
- ED50 [4]: 100 mg/kg
Structure (SMILES): CCCC(O)C(=O)N1C[C@@H](c2ccc(OC)c(OCC3CC3)c2)[C@](C)([C@@H](C)O)C1 (stereo partly drawn) [Example 101, 1-{(3S,4S)-3-((1R)-1-Hydroxyethyl)-4-[3-(cyclopropylmethoxy)-4-methoxyphenyl]-3-methylpyrrolidinyl)-2-hydroxypentan-1-one]
- ED50 [3, 7]: 3 mg/kg
